What all share (type): physicochemical
Data set [1] can be described thus: Separatory funnel phase separation of 1,2,5-thiadiazole and water. The settings on record: 10 ml 1,2,5-thiadiazole and 10 ml water, shaken vigorously, allowed to stand. The procedure: A 10 ml of 1,2,5-thiadiazole and 10 ml of water were put into a separatory funnel, and the system was shaken vigorously, to be allowed to stand.
Data set [2] in a line: Compatibility of 1,2,5-thiadiazole with other solvents. Also on record: key: ◯: Circle: fully compatible to give a uniform mixture; Triangle: giving a white turbidity; X-mark: being divided into two phases. The following applies: 1,2,5-thiadiazole mixed with the listed solvent at volume ratio 1/1 (2 ml), room temperature, visual inspection. On the procedure:
For 1,2,5-thiadiazole of the present invention, its compatibility with other solvents was studied. The test consisted of mixing 1,2,5-thiadiazole with another solvent at a volume ratio of 1/1 (2 ml), allowing the system to stand at room temperature, and visually inspecting the compatibility of the former with the latter.
Circle: fully compatible to give a uniform mixture
Triangle: giving a white turbidity
X-mark: being divided into two phases

Data set [3] is described as follows: Dissolving capability: amount of solvent needed to completely dissolve 20 mg of compound. The following applies: 20 mg compound, room temperature; for Addition amount of solvent until compound completely dissolved (Example 3): solvent 1,2,5-thiadiazole, stirring; for Amount of solvent required for completely dissolving the compound (Comp. Ex. 1): solvent chloroform; for Amount of solvent required for completely dissolving the compound (Comp. Ex. 2): solvent diethylether. On the procedure:
The dissolving capability of 1,2,5-thiadiazole of the present invention was studied. A 20 mg of each of compounds 1 to 20 was transferred into a sample vial, to which 1,2,5-thiadiazole was added at room temperature with stirring. The addition was continued until the compound was completely dissolved, and the addition amount of the solvent was determined.
The same procedure as in Example 3 was repeated except that 1,2,5-thiadiazole was replaced with chloroform. The amount of the solvent required for completely dissolving the compound was determined.
The same procedure as in Example 3 was repeated except that 1,2,5-thiadiazole was replaced with diethylether. The amount of the solvent required for completely dissolving the compound was determined.

The nature of data set [4]: Extracting activity: partition of compound between water phase and organic phase (TLC). The settings on record: for Ratio of content of compound in water phase against organic phase (Example 4): 2 mg compound in 100 μl 1,2,5-thiadiazole + 100 μl distilled water; for Ratio of content of compound in water phase against organic phase (Comp. Ex. 3): 2 mg compound in 100 μl chloroform + 100 μl distilled water; for Ratio of content of compound in water phase against organic phase (Comp. Ex. 4): 2 mg compound in 100 μl diethylether + 100 μl distilled water. On the procedure:
The extracting activity of 1,2,5-thiadiazole of the present invention was studied. A 2 mg of each of compounds 1 to 20 was dissolved in 100 μl of 1,2,5-thiadiazole, to which 100 μl of distilled water was added, and the system was subjected to separation operation. The ratio of the content of the compound in water phase against the counterpart in organic phase was determined using TLC, and the results are shown in Table 3.
The same procedure as in Example 4 was repeated except that 1,2,5-thiadiazole was replaced with chloroform, to determine the comparative extracting activity of chloroform.
The same procedure as in Example 4 was repeated except that 1,2,5-thiadiazole was replaced with diethylether, to determine the comparative extracting activity of diethylether.

1,2,5-thiadiazole: the “Phase separation from water” value in data set [1] is “clearly divided into two phases”.

Consider `CC(C)=O` [Acetone], for which the Compatibility result in data set [2] is reported as “◯”.

For `CC#N` [Acetonitrile], the Compatibility result in data set [2] is recorded as “◯”.

Consider `c1ccccc1` [Benzene], for which the Compatibility result in data set [2] is on record as “◯”.

In the case of `O=C1Cc2ccccc2N1` [Compound 1], in data set [3], the “Addition amount of solvent until compound completely dissolved (Example 3)” value (from here on “Addition amount”) was 100 µL, the “Amount of solvent required for completely dissolving the compound (Comp. Ex. 1)” value (from here on “Amount of solvent required … (Comp. Ex. 1)”) stood at 400 µL and the “Amount of solvent required for completely dissolving the compound (Comp. Ex. 2)” value (shortened to “Amount of solvent required … (Comp. Ex. 2)”) was found to be 2000 µL. Moreover, in data set [4], the “Ratio of content of compound in water phase against organic phase (Example 4)” value (“Ratio of content of compound … (Example 4)” below) was 1/100, the “Ratio of content of compound in water phase against organic phase (Comp. Ex. 3)” value (“Ratio of content of compound … (Comp. Ex. 3)” below) is 1/10 and the “Ratio of content of compound in water phase against organic phase (Comp. Ex. 4)” value (from here on “Ratio of content of compound … (Comp. Ex. 4)”) was 1/5.

For `CO[C@H]1OC(COCc2ccccc2)[C@H](N=[N+]=[N-])CC1NS(=O)(=O)c1ccc(C)cc1` (stereo partly drawn) [Compound 2], in data set [3], the “Addition amount” value came to 140 µL, the “Amount of solvent required … (Comp. Ex. 1)” value was found to be 240 µL and the “Amount of solvent required … (Comp. Ex. 2)” value worked out at 1600 µL. Further, in data set [4], the “Ratio of content of compound … (Example 4)” value is reported as 0/100, the “Ratio of content of compound … (Comp. Ex. 3)” value is given as 1/50 and the “Ratio of content of compound … (Comp. Ex. 4)” value was 1/4.

On to `O=C1C(OCc2ccccc2)=C[C@@H](CO)[C@@H]1CO` [Compound 3], for which, in data set [3], the “Addition amount” value stood at 160 µL, the “Amount of solvent required … (Comp. Ex. 1)” value turned out to be 200 µL and the “Amount of solvent required … (Comp. Ex. 2)” value is reported as “Insoluble”. In data set [4], the “Ratio of content of compound … (Example 4)” value is 1/5, the “Ratio of content of compound … (Comp. Ex. 3)” value is recorded as 4/5 and the “Ratio of content of compound … (Comp. Ex. 4)” value is on record as “Hardly soluble”.

With `COCOc1cc(OCOC)c2c(c1)C(S(=O)(=O)c1ccccc1)OC2=O` (stereo not drawn) [Compound 4], in data set [3], the “Addition amount” value is 1000 µL, the “Amount of solvent required … (Comp. Ex. 1)” value is on record as “Hardly soluble” and the “Amount of solvent required … (Comp. Ex. 2)” value is recorded as “Hardly soluble”. Besides, in data set [4], the “Ratio of content of compound … (Example 4)” value was 0/100, the “Ratio of content of compound … (Comp. Ex. 3)” value was “Hardly soluble” and the “Ratio of content of compound … (Comp. Ex. 4)” value was “Hardly soluble”.

Consider `O=C(O)CNC(=O)OCc1ccccc1` [Compound 5], for which, in data set [3], the “Addition amount” value came to 1000 µL, the “Amount of solvent required … (Comp. Ex. 1)” value was found to be 2000 µL and the “Amount of solvent required … (Comp. Ex. 2)” value came to 2000 µL. Further, in data set [4], the “Ratio of content of compound … (Example 4)” value is given as 0/100, the “Ratio of content of compound … (Comp. Ex. 3)” value is listed as 1/5 and the “Ratio of content of compound … (Comp. Ex. 4)” value was 0/100.

Regarding `Cc1ccc(S(=O)(=O)OCCC2(CCS(=O)(=O)c3ccccc3)OCCO2)cc1` [Compound 6], in data set [3], the “Addition amount” value was 1000 µL, the “Amount of solvent required … (Comp. Ex. 1)” value was determined as 2000 µL and the “Amount of solvent required … (Comp. Ex. 2)” value is “Hardly soluble”. In data set [4], the “Ratio of content of compound … (Example 4)” value is 0/100, the “Ratio of content of compound … (Comp. Ex. 3)” value is recorded as 1/5 and the “Ratio of content of compound … (Comp. Ex. 4)” value is “Hardly soluble”.

Regarding `CC(=O)Oc1ccc(OC(C)=O)c(OC(C)=O)c1` [Compound 7], in data set [3], the “Addition amount” value is 100 µL, the “Amount of solvent required … (Comp. Ex. 1)” value is 200 µL and the “Amount of solvent required … (Comp. Ex. 2)” value was found to be 2000 µL. Further, in data set [4], the “Ratio of content of compound … (Example 4)” value is on record as 0/100, the “Ratio of content of compound … (Comp. Ex. 3)” value is reported as 0/100 and the “Ratio of content of compound … (Comp. Ex. 4)” value was 0/100.

For `CO[C@H]1OC2COC(c3ccccc3)O[C@H]2C(O)C1NS(=O)(=O)c1ccc(C)cc1` (stereo partly drawn) [Compound 8], in data set [3], the “Addition amount” value came to 200 µL, the “Amount of solvent required … (Comp. Ex. 1)” value is 240 µL and the “Amount of solvent required … (Comp. Ex. 2)” value was 1600 µL. Moreover, in data set [4], the “Ratio of content of compound … (Example 4)” value is listed as 1/15, the “Ratio of content of compound … (Comp. Ex. 3)” value is 1/15 and the “Ratio of content of compound … (Comp. Ex. 4)” value is 1/15.

As to `Cc1ccc(S(=O)(=O)O[C@@H]2C(C)O[C@@H](OCc3ccccc3)C3OC(=O)OC32)cc1` (stereo partly drawn) [Compound 9], in data set [3], the “Addition amount” value came out at 20 µL, the “Amount of solvent required … (Comp. Ex. 1)” value amounted to 200 µL and the “Amount of solvent required … (Comp. Ex. 2)” value was 6000 µL. In data set [4], the “Ratio of content of compound … (Example 4)” value is 0/100, the “Ratio of content of compound … (Comp. Ex. 3)” value was 0/100 and the “Ratio of content of compound … (Comp. Ex. 4)” value is given as 0/100.

Turning to `COCOc1cc(OC)c(OC)c2c1C(=O)OC2` [Compound 10], in data set [3], the “Addition amount” value was 200 µL, the “Amount of solvent required … (Comp. Ex. 1)” value amounted to 400 µL and the “Amount of solvent required … (Comp. Ex. 2)” value is listed as “Hardly soluble”. In data set [4], the “Ratio of content of compound … (Example 4)” value is reported as 0/100, the “Ratio of content of compound … (Comp. Ex. 3)” value is on record as 1/100 and the “Ratio of content of compound … (Comp. Ex. 4)” value is given as “Hardly soluble”.

Take `CC(C)(C)[Si](C)(C)OCC1=CC2(OCCO2)C(O)C(O)C1=O` (stereo not drawn) [Compound 11]: in data set [3], the “Addition amount” value stood at 200 µL, the “Amount of solvent required … (Comp. Ex. 1)” value was 400 µL and the “Amount of solvent required … (Comp. Ex. 2)” value is listed as “Hardly soluble”.

In the case of `CC/C=C(\C)CN1C(=O)OC[C@H]1C(C)C` [Compound 12], in data set [3], the “Addition amount” value came out at 200 µL, the “Amount of solvent required … (Comp. Ex. 1)” value was 200 µL and the “Amount of solvent required … (Comp. Ex. 2)” value came out at 200 µL.

As for `O=C1C=CC2(C=C1CO)OCCO2` [Compound 14], in data set [3], the “Addition amount” value came out at 100 µL, the “Amount of solvent required … (Comp. Ex. 1)” value worked out at 100 µL and the “Amount of solvent required … (Comp. Ex. 2)” value worked out at 2000 µL.

`CC1(C)OCc2cc(OCCO)ccc2O1` [Compound 15]: in data set [3], the “Addition amount” value amounted to 100 µL, the “Amount of solvent required … (Comp. Ex. 1)” value is 100 µL and the “Amount of solvent required … (Comp. Ex. 2)” value came to 2400 µL.

`COCCCCC(O)C(O)C(=O)OC` (stereo not drawn) [Compound 16]: in data set [3], the “Addition amount” value is 100 µL, the “Amount of solvent required … (Comp. Ex. 1)” value was found to be 100 µL and the “Amount of solvent required … (Comp. Ex. 2)” value is 200 µL.

Take `Cc1oc2ccccc2c(=O)c1C` [Compound 17]: in data set [3], the “Addition amount” value turned out to be 40 µL, the “Amount of solvent required … (Comp. Ex. 1)” value was 40 µL and the “Amount of solvent required … (Comp. Ex. 2)” value was 4000 µL.

In the case of `CC(=O)OCC1OCCC(OC(C)=O)[C@@H]1OC(C)=O` (stereo partly drawn) [Compound 18], in data set [3], the “Addition amount” value was 200 µL, the “Amount of solvent required … (Comp. Ex. 1)” value stood at 200 µL and the “Amount of solvent required … (Comp. Ex. 2)” value is 200 µL.

Turning to `CCCCCC(=O)CC(=O)NC1CCOC1=O` (stereo not drawn) [Compound 19], in data set [3], the “Addition amount” value was found to be 100 µL, the “Amount of solvent required … (Comp. Ex. 1)” value turned out to be 100 µL and the “Amount of solvent required … (Comp. Ex. 2)” value stood at 4800 µL.

Turning to `CN(C)C=O` [Dimethylformamide], the Compatibility entry in data set [2] is “◯”.

Regarding `CCO` [Ethanol], the Compatibility result in data set [2] was “◯”.

For `CCOC(C)=O` [Ethyl acetate], the Compatibility entry in data set [2] is recorded as “◯”.

For the compound `CO` [Methanol], the Compatibility result in data set [2] is reported as “◯”.

Turning to `Cc1ccccc1` [Toluene], the Compatibility result in data set [2] is reported as “◯”.

Consider `O` [Water], for which the Compatibility entry in data set [2] is “X”.

As for `CCCCCC` [n-Hexane], the Compatibility entry in data set [2] is given as “◯”.

For Xylene, in data set [2], the Compatibility entry is listed as “◯”.

The values above are taken from patent US20060287533A1, “SOLVENT CONTAINING 1,2,5-THIADIAZOLE COMPOUND, AND METHOD FOR EXTRACTING AN ORGANIC COMPOUND USING THE SOLVENT” (Waseda University, priority 2004, published 2006).
